Results from patent US12252486B2, “Solid state forms” (Amgen Inc., priority 2019, dated 2025).

How the values were obtained:
KRAS^G12C tumors [1] = conditions: preclinical analyses, combination; cited from earlier work
KRAS^G12C tumors [2] = conditions: immune-competent mice; alone as well as in combination with immune-checkpoint inhibitors; cited from earlier work
[3] = clinical trials, first dosing cohorts; cited from earlier work
[4] = solubility assessment during lead optimization; assay type: physicochemical
Description: Within the pharmaceutical research and development field, the investigation of a suitable solid-state form represents a crucial step. Investigating a solid-state form comprises several decisions, mainly the investigation of an anhydrous, salt or co-crystal form and the investigation of a polymorph of the respective anhydrous, salt or co-crystal. During a lead optimization program, several properties of research compounds are optimized, typically leading to one or a few candidates that continue into exploratory development programs. Typically, in the assessment and optimization of physical chemical parameters during lead optimization, the main focus is on solubility. […] Beyond the optimization of solubility, further physical chemical parameters, such as (1) melting point, (2) thermal behavior, (3) hygroscopicity, (4) crystal habit, (5) polymorphic behavior or physical stability, (6) impurity profile, and (7) chemical stability of the anhydrous or salt form, must be borne in mind when investigating the salt. The melting point of a drug, either as a free base, acid or salt form, should be higher than a certain threshold to allow processing steps such as drying or tableting. The assessment of thermal behavior, which is typically done by thermogravimetry (TGA) and differential scanning calorimetry (DSC), also includes solid-solid phase transitions. […]

Structure (SMILES)	effect on anti-tumor efficacy of chemotherapy and targeted agents (KRAS^G12C tumors [1])	cures (KRAS^G12C tumors [2])	anti-tumor activity [3]	solubility [4]
C=CC(=O)N1CCN(c2nc(=O)n(-c3c(C)ccnc3C(C)C)c3nc(-c4c(O)cccc4F)c(F)cc23)[C@@H](C)C1 [AMG 510]	improved the anti-tumor efficacy of chemotherapy and targeted agents	durable cures	demonstrated anti-tumor activity	–
C=CC(=O)N1CCN(c2nc(=O)n(-c3c(C)ccnc3C(C)C)c3nc(-c4c(O)cccc4F)c(F)cc23)[C@@H](C)C1 [Compound 1, 6-fluoro-7-(2-fluoro-6-hydroxyphenyl)-1-(4-methyl-2-(2-propanyl)-3-pyridinyl)-4-((2S)-2-methyl-4-(2-propenoyl)-1-piperazinyl)pyrido[2,3-d]pyrimidin-2(1H)-one]	–	–	–	good solubility features
